Experimental data: paper PMC3463757 (2012)

What was measured:
ROCK1 = ROCK1 (Homo sapiens, UniProt Q13464); test: Invitrogen Z-Lyte FRET kinase assay, […] peptide substrate; type: biochemical
ROCK2 = ROCK2 (Homo sapiens, UniProt O75116); test: as above; type: biochemical
ROCK2, sequence (O75116 whole entry): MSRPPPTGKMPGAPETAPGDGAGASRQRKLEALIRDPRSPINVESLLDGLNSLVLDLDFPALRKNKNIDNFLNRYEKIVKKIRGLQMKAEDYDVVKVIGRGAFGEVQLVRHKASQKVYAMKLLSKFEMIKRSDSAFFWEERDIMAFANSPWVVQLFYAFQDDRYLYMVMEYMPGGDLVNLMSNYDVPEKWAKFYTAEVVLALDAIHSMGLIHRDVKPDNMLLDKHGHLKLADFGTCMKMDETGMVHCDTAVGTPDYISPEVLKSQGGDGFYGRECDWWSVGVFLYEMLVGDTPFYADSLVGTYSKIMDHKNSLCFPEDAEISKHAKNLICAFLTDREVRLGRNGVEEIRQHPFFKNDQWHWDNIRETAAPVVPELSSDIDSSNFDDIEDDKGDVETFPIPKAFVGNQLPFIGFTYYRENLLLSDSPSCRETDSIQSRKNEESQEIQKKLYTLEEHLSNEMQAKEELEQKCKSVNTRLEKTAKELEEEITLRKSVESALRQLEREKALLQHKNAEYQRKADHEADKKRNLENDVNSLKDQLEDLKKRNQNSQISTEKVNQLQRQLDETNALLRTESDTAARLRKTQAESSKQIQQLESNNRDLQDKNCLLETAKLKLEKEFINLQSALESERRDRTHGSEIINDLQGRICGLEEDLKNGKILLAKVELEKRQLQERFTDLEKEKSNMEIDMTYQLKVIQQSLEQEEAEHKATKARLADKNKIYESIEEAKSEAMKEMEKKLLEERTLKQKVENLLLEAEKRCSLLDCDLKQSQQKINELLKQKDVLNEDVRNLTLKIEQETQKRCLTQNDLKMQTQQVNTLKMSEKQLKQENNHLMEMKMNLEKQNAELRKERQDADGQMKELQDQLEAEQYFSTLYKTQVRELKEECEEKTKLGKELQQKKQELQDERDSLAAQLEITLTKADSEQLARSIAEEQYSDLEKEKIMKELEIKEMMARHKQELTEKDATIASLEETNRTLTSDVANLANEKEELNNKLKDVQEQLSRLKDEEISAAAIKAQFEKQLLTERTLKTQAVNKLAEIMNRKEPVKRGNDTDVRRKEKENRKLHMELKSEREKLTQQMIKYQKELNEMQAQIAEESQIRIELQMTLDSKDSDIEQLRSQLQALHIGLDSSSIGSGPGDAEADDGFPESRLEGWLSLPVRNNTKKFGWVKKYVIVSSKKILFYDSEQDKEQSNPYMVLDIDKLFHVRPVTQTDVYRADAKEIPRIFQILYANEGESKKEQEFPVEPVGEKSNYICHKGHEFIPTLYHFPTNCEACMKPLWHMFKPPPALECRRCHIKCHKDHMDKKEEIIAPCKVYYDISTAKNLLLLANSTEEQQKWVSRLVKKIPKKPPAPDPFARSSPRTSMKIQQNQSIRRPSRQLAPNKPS

ROCK1, sequence (Q13464 2-1354): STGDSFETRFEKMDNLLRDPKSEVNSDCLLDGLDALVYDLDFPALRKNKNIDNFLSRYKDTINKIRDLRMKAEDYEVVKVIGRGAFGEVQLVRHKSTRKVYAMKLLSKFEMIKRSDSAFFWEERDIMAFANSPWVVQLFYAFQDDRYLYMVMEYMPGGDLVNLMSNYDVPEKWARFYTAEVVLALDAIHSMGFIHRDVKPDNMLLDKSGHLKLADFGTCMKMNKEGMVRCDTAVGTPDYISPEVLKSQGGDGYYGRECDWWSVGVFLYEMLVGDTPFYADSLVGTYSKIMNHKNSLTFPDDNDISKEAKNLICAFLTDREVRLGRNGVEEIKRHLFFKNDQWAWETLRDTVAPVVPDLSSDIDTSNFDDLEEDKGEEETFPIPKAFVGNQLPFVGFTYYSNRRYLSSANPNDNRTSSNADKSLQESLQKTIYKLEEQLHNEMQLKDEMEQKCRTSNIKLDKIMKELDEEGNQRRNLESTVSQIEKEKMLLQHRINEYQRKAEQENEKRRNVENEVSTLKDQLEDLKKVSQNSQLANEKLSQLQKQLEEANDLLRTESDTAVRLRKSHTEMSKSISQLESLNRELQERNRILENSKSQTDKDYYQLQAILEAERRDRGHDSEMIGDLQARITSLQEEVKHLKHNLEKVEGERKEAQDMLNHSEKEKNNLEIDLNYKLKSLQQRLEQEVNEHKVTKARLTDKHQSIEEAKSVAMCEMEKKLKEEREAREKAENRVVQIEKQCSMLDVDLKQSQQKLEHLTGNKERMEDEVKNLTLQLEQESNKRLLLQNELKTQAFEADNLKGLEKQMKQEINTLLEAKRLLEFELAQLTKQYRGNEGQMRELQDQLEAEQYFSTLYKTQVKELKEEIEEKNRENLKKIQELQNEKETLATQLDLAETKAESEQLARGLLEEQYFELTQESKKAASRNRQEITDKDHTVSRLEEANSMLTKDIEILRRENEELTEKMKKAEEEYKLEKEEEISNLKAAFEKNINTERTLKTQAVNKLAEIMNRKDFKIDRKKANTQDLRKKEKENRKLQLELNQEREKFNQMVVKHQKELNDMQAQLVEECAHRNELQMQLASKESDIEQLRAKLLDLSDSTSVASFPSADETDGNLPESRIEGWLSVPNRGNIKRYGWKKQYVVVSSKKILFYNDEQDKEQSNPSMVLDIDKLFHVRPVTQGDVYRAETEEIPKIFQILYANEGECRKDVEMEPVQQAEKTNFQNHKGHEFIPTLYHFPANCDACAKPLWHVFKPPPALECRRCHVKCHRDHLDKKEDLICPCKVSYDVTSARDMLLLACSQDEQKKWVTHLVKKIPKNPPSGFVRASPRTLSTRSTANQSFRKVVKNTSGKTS

IC50 (ROCK1): 34 µM
IC50 (ROCK2): 8 µM
Substance: RKI-1313
